How the values were obtained:
Format in all cases: functional
Mus musculus [1] = species: Mus musculus; assay: Hypervitaminosis dose determined as a measure of toxicity
Mus musculus [2] = assay: In vivo anti-papilloma activity against chemically induced skin papillomas in mice at dose of 5(mg/kg)/day
Mus musculus [3] = assay: In vivo anti-papilloma activity against chemically induced skin papillomas in mice at dose of 20(mg/kg)/day
Mus musculus [4] = assay: In vivo anti-papilloma activity against chemically induced skin papillomas in mice at dose of 10 mg/kg/day
Mus musculus [5] = assay: In vivo anti-papilloma activity against chemically induced skin papillomas in mice at dose of 40 mg/kg/day
Mus musculus [6] = assay: In vivo anti-papilloma activity against chemically induced skin papillomas in mice at dose of 80(mg/kg)/day

Compound	Dose (Mus musculus [1])	Antipapilloma activity (Mus musculus [2])	Antipapilloma activity (Mus musculus [3])	Antipapilloma activity (Mus musculus [4])	Antipapilloma activity (Mus musculus [5])	Antipapilloma activity (Mus musculus [6])
CCOC(=O)/C=C(C)/C(F)=C/C=C(C)/C=C/c1c(Cl)cc(OC)c(C)c1Cl	25 mg/kg/day	-58%				
CCOC(=O)/C=C(C)/C(F)=C/C=C(C)/C=C/c1c(Cl)cc(OC)c(C)c1C	50 mg/kg/day	-41%	-59%	-60%		
CCOC(=O)/C=C(C)/C(F)=C/C=C(C)/C=C/c1c(C)cc(OC)c(C)c1Cl	50 mg/kg/day		-73%			
CCOC(=O)/C=C(C)/C(F)=C/C=C(C)/C=C/c1c(C)cc(C)c(Cl)c1C	>200 mg/kg/day		-29%		-34%	-64%
CCOC(=O)/C=C(C)/C(F)=C/C=C(C)/C=C/c1c(C)cc(OC)c(C)c1C	50 mg/kg/day	-43%	-62%	-76%	-69%	-82%
CCOC(=O)/C=C(C)/C=C/C=C(C)/C=C/c1c(C)cc(OC)c(C)c1C [ETRETINATE]	100 mg/kg/day		-29%	9%	-33%	-47%
